Assay results published in patent US7812008B2, “9-substituted tetracyclines” (Wyeth LLC, priority 2005, dated 2010).
Values after ≈ are worked out from the molar mass of the structure shown. Read-outs that look alike come from different tables or passages of the source.

Columns and labels:
[1] = system: H. influenzae<> GC6896 (ATCC Control); experiment: MIC broth microdilution, H. influenzae GC6896 (ATCC Control); format: cell-based; details: 18-22 hours at 35° C.
Experimental: (§1) Methods for in Vitro Antibacterial Evaluation
(§2) The minimum inhibitory concentration (MIC)
(§3) Antimicrobial susceptibility testing. The in vitro activities of representative examples of antibiotics of the invention are determined by the broth microdilution method as recommended by the National Committee for Clinical Laboratory Standards (NCCLS) (1). Mueller-Hinton II broth (MHBII)(BBL Cockeysville, Md.) is the medium employed in the testing procedures. Microtiter plates containing serial dilutions of each antimicrobial agent are inoculated with each organism to yield the appropriate density (10^5 CFU/ml) in a 100 μl final volume. The plates are incubated for 18-22 hours at 35° C. in ambient air. […] NCCLS. 2000. Methods for Dilution Antimicrobial Susceptibility Tests for Bacteria That Grow Aerobically; Approved Standards: M7-A5, vol. 20. National Committe for Clinical Laboratory Standards, Wayne, Pa.

[2] = system: S. aureus GC6467 (tet(M) + (K)); experiment: MIC broth microdilution, S. aureus GC6467 (tet(M) + (K)); format: cell-based; details: MHBII, 18-22 hours at 35° C.
Experimental: as §1, §2, §3

[3] = system: S. aureus GC1079 (tet(K)); experiment: MIC broth microdilution, S. aureus GC1079 (tet(K)); format: cell-based; details: MHBII, 18-22 hours at 35° C.
Experimental: as §1, §2, §3

[4] = system: Staphylococcal aureus Smith M P; experiment: MIC reported in Table 2 beside the in vivo ED50; format: cell-based; details: Staphylococcus aureus, infecting strain S. aureus Smith MP
Experimental: Antimicrobial susceptibility testing. The in vitro activities of representative examples of antibiotics of the invention are determined by the broth microdilution method as recommended by the National Committee for Clinical Laboratory Standards (NCCLS) (1). Mueller-Hinton II broth (MHBII)(BBL Cockeysville, Md.) is the medium employed in the testing procedures. Microtiter plates containing serial dilutions of each antimicrobial agent are inoculated with each organism to yield the appropriate density (10^5 CFU/ml) in a 100 μl final volume. The plates are incubated for 18-22 hours at 35° C. in ambient air. […] NCCLS. 2000. Methods for Dilution Antimicrobial Susceptibility Tests for Bacteria That Grow Aerobically; Approved Standards: M7-A5, vol. 20. National Committe for Clinical Laboratory Standards, Wayne, Pa. In Vivo Antibacterial Evaluation: The therapeutic effects of representative examples of the invention are determined against acute lethal infection with Staphylococcal aureus Smith M P, Female mice, strain CD-1 (Charles River Laboratoties), ca. 20 grams, are challenged by an intraperitoneal injection of sufficient bacteria (suspended in broth or hog mucin) to kill non-treated controls within 24-28 hours. Antibacterial agents, contained in 0.5 ml of 0.2% aqueous agar, are administered subcutaneously or orally 30 minutes after injection. When an oral dosing schedule is used, animal are deprived of food for 5 hours before and 2 hours after injection. Five mice are treated at each dose level. The 7 day survival ratios from 3 separate tests are pooled for calculation of median effective dose (ED50).

[5] = system: M. catarrhalis* GC6907 (Clinical); experiment: MIC broth microdilution, M. catarrhalis GC6907 (Clinical); format: cell-based; details: 18-22 hours at 35° C.
Experimental: as §1, §2, §3

[6] = system: S. aureus GC2216 (ATCC Control); experiment: MIC broth microdilution, S. aureus GC2216 (ATCC Control); format: cell-based; details: MHBII, 18-22 hours at 35° C.
Experimental: as §1, §2, §3

[7] = system: S. pyogenes* GC4563 (Clinical); experiment: MIC broth microdilution, S. pyogenes GC4563 (Clinical); format: cell-based; details: 18-22 hours at 35° C.
Experimental: as §1, §2, §3

[8] = system: S. aureus GC1131 (Clinical); experiment: MIC broth microdilution, S. aureus GC1131 (Clinical); format: cell-based; details: MHBII, 18-22 hours at 35° C.
Experimental: as §1, §2, §3

[9] = system: E. faecalis GC2267 (tet(L) + (M) + (S)); experiment: MIC broth microdilution, E. faecalis GC2267 (tet(L) + (M) + (S)); format: cell-based; details: MHBII, 18-22 hours at 35° C.
Experimental: as §1, §2, §3

[10] = system: Staphylococcal aureus Smith M P; experiment: In vivo antibacterial evaluation, acute lethal infection in mice; details: Mus musculus; single oral dose 30 minutes after intraperitoneal challenge; female CD-1 mice; 7 day survival ratios, 3 tests pooled; read-out: SOD* ED50
Experimental: In Vivo Antibacterial Evaluation: The therapeutic effects of representative examples of the invention are determined against acute lethal infection with Staphylococcal aureus Smith M P, Female mice, strain CD-1 (Charles River Laboratoties), ca. 20 grams, are challenged by an intraperitoneal injection of sufficient bacteria (suspended in broth or hog mucin) to kill non-treated controls within 24-28 hours. Antibacterial agents, contained in 0.5 ml of 0.2% aqueous agar, are administered subcutaneously or orally 30 minutes after injection. When an oral dosing schedule is used, animal are deprived of food for 5 hours before and 2 hours after injection. Five mice are treated at each dose level. The 7 day survival ratios from 3 separate tests are pooled for calculation of median effective dose (ED50).

[11] = system: S. aureus GC6466 (tet(M)); experiment: MIC broth microdilution, S. aureus GC6466 (tet(M)); format: cell-based; details: MHBII, 18-22 hours at 35° C.
Experimental: as §1, §2, §3

[12] = system: E. coli GC4559 (parent GC4560); experiment: MIC broth microdilution, E. coli GC4559 (parent GC4560); format: cell-based; details: MHBII, 18-22 hours at 35° C.
Experimental: as §1, §2, §3

[13] = system: E. faecalis GC4555 (ATCC Control); experiment: MIC broth microdilution, E. faecalis GC4555 (ATCC Control); format: cell-based; details: MHBII, 18-22 hours at 35° C.
Experimental: as §1, §2, §3

[14] = system: E. faecalis GC2242 (Van-resistant); experiment: MIC broth microdilution, E. faecalis GC2242 (Van-resistant); format: cell-based; details: MHBII, 18-22 hours at 35° C.
Experimental: as §1, §2, §3

[15] = system: S. pneumoniae* GC4465 (Clinical); experiment: MIC broth microdilution, S. pneumoniae GC4465 (Clinical); format: cell-based; details: 18-22 hours at 35° C.
Experimental: as §1, §2, §3

[16] = system: S. pneumoniae* GC1894 (Clinical); experiment: MIC broth microdilution, S. pneumoniae GC1894 (Clinical); format: cell-based; details: 18-22 hours at 35° C.
Experimental: as §1, §2, §3

[17] = system: E. coli GC2203 (ATCC Control); experiment: MIC broth microdilution, E. coli GC2203 (ATCC Control); format: cell-based; details: MHBII, 18-22 hours at 35° C.
Experimental: as §1, §2, §3

[18] = system: S. aureus GC4536 (Smith MP -In Vivo); experiment: MIC broth microdilution, S. aureus GC4536 (Smith MP -In Vivo); format: cell-based; details: MHBII, 18-22 hours at 35° C.
Experimental: as §1, §2, §3

[19] = system: C. albicans GC3066 ATCC (Control); experiment: MIC broth microdilution, C. albicans GC3066 ATCC (Control); format: cell-based; details: 18-22 hours at 35° C.
Experimental: as §1, §2, §3

[20] = system: E. coli GC4560 (IMP mutant); experiment: MIC broth microdilution, E. coli GC4560 (IMP mutant); format: cell-based; details: MHBII, 18-22 hours at 35° C.
Experimental: as §1, §2, §3

E. coli GC2270 (tet(M)) = experiment: MIC broth microdilution, E. coli GC2270 (tet(M)); format: cell-based; details: MHBII, 18-22 hours at 35° C.
Experimental: as §1, §2, §3

E. coli GC1073 (tet(B)) = experiment: MIC broth microdilution, E. coli GC1073 (tet(B)); format: cell-based; details: MHBII, 18-22 hours at 35° C.
Experimental: as §1, §2, §3

[21] = system: Staphylococcal aureus Smith M P; experiment: In vivo antibacterial evaluation, acute lethal infection in mice; details: Mus musculus, iv, 168 h; single intraveneous dose; female CD-1 mice; 7 day survival ratios, 3 tests pooled; read-out: SIV* ED50

Compound | minimum inhibitory concentration (MIC) [1] | minimum inhibitory concentration (MIC) [2] | minimum inhibitory concentration (MIC) [3] | MIC [4] [µg/mL] | minimum inhibitory concentration (MIC) [5] | minimum inhibitory concentration (MIC) [6] | minimum inhibitory concentration (MIC) [7] | minimum inhibitory concentration (MIC) [8] | minimum inhibitory concentration (MIC) [9] | ED50 [10] [mg/kg] | minimum inhibitory concentration (MIC) [11] | minimum inhibitory concentration (MIC) [12] | minimum inhibitory concentration (MIC) [13] | minimum inhibitory concentration (MIC) [14] | minimum inhibitory concentration (MIC) [15] | minimum inhibitory concentration (MIC) [16] | minimum inhibitory concentration (MIC) [17] | minimum inhibitory concentration (MIC) [18] | minimum inhibitory concentration (MIC) [19] | minimum inhibitory concentration (MIC) [20] | also measured
CN(C)c1cc(NC(=O)CN(O)C(C)(C)C)c(O)c2c1C[C@H]1C[C@H]3[C@H](N(C)C)C(O)=C(C(N)=O)C(=O)[C@@]3(O)C(O)=C1C2=O [Example 3, (4S,4aS,5aR,12aS)-9-{[N-(tert-butyl)-N-hydroxyglycyl]amino}-4,7-bis(dimethylamino)-3,10,12,12a-tetrahydroxy-1,11-dioxo-1,4,4a,5,5a,6,11,12a-octahydrotetracene-2-carboxamide] | 8 | 16 | 8 | 1 (≈ 1.66 µM) | 2 | 4 | 0.50 | 4 | 8 | > 32 | 4 | >64 | 4 | 8 | 1 | 1 | 32 | 4 | >64 | 1 | minimum inhibitory concentration (MIC) (E. coli GC2270 (tet(M))): >64; minimum inhibitory concentration (MIC) (E. coli GC1073 (tet(B))): >64; ED50 [21]: 2 to 4 mg/kg
CN(C)c1cc(NC(=O)CNOC(C)(C)C)c(O)c2c1C[C@H]1C[C@H]3[C@H](N(C)C)C(O)=C(C(N)=O)C(=O)[C@@]3(O)C(O)=C1C2=O [Example 4, (4S,4aS,5aR,12aS)-9-{[N-(tert-butoxy)glycyl]amino}-4,7-bis(dimethylamino)-3,10,12,12a-tetrahydroxy-1,11-dioxo-1,4,4a,5,5a,6,11,12a-octahydrotetracene-2-carboxamide] | 2 | >64 | 16 | 4 (≈ 6.65 µM) | 0.50 | 1 | 0.12 | 1 | 8 | 1.1 | 1 | 16 | 1 | 1 | 0.25 | 0.25 | 8 | 1 | >64 | 0.50 | minimum inhibitory concentration (MIC) (E. coli GC2270 (tet(M))): 8; minimum inhibitory concentration (MIC) (E. coli GC1073 (tet(B))): 16; ED50 [21]: 0.25 to 1 mg/kg
CONCC(=O)Nc1cc(N(C)C)c2c(c1O)C(=O)C1=C(O)[C@]3(O)C(=O)C(C(N)=O)=C(O)[C@@H](N(C)C)[C@@H]3C[C@@H]1C2 [Example 5, (4S,4aS,5aR,12aS)-4,7-bis(dimethylamino)-3,10,12,12a-tetrahydroxy-9-[(N-methoxyglycyl)amino]-1,11-dioxo-1,4,4a,5,5a,6,11,12a-octahydrotetracene-2-carboxamide] | 2 | 4 | 2 | 1 (≈ 1.79 µM) | 0.25 | 1 | 0.25 | 1 | 4 | 16 to 32 | 1 | 4 | 1 | 2 | 0.12 | 0.25 | 2 | 1 | >64 | 0.25 | minimum inhibitory concentration (MIC) (E. coli GC2270 (tet(M))): 4; minimum inhibitory concentration (MIC) (E. coli GC1073 (tet(B))): 4; ED50 [21]: 0.5 to 1 mg/kg
CN(C)c1cc(NC(=O)CN(O)Cc2ccccc2)c(O)c2c1C[C@H]1C[C@H]3[C@H](N(C)C)C(O)=C(C(N)=O)C(=O)[C@@]3(O)C(O)=C1C2=O [Example 6, (4S,4aS,5aR,12aS)-9-[(N-benzyl-N-hydroxyglycyl)amino]-4,7-bis(dimethylamino)-3,10,12,12a-tetrahydroxy-1,11-dioxo-1,4,4a,5,5a,6,11,12a-octahydrotetracene-2-carboxamide] | 2 | 64 | 8 | 2 (≈ 3.15 µM) | 0.50 | 2 | 0.25 | 4 | 8 | > 16 | 2 | 8 | 1 | 2 | 0.12 | 0.25 | 16 | 2 | >64 | 0.25 | minimum inhibitory concentration (MIC) (E. coli GC2270 (tet(M))): 16; minimum inhibitory concentration (MIC) (E. coli GC1073 (tet(B))): 32; ED50 [21]: > 4 mg/kg
